Test system: WM3248 melanoma cells, 486 antibodies
Assay: Reverse phase protein arrays (RPPA);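 for RPPA AceCS1.R.V: ratio of treated to vehicle (0 µM) normalized linear protein signal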;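 for RPPA Akt1 pS473.R.V: ratio of treated to vehicle (0 µM) normalized linear protein signal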;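 for RPPA Akt1.R.V: ratio of treated to vehicle (0 µM) normalized linear protein signal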;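 for RPPA Ambra1 pS52.R.C: ratio of treated to vehicle (0 µM) normalized linear protein signal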;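 for RPPA Atg5.R.C: ratio of treated to vehicle (0 µM) normalized linear protein signal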;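 for RPPA Bim.R.V: ratio of treated to vehicle (0 µM) normalized linear protein signal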
Format: cell-based, Human
Conditions: 10 uM, Average
Excerpt: Pellets were snap frozen in liquid nitrogen and shipped to MD Anderson Cancer Center core RPPA facility for RPPA analysis (Table S5). Three biological replicates for each sample were generated.
Nomenclatures on the RPPA heatmaps: name_of_antibody.species_of_antibody.status_of_antibody. V - antibody validated; C - validation of antibody in progress; Q - antibody nonspecific; E – under evaluation; antibodies raised in M - mouse, G - goat, R - rabbit, or T - rat.

SMILES: CN(C)c1cccc(Nc2cc(-c3ccccc3)nc(C3CCNCC3)n2)c1 [ARN22089, N1,N1-dimethyl-N3-(6-phenyl-2-(piperidin-4-yl)pyrimidin-4-yl)benzene-1,3-diamine]
- RPPA ATM.R.V: 0.927
- RPPA ATM_pS1981.R.V: 1.057
- RPPA ATP5A.M.C: 0.974
- RPPA ATP5H.R.V: 1.098
- RPPA ATR.R.V: 1.026
- RPPA ATRX.R.C: 0.906
- RPPA ATR_pS428.R.C: 0.986
- RPPA AceCS1.R.V: 0.979
- RPPA Akt1.R.V: 0.907
- RPPA Akt1_pS473.R.V: 0.954
- RPPA Akt2.R.V: 0.941
- RPPA Akt2_pS474.R.C: 1.021
- RPPA Akt.R.V: 0.867
- RPPA Akt_pT308.R.V: 0.981
- RPPA Ambra1_pS52.R.C: 1.030
- RPPA Atg3.R.V: 0.962
- RPPA Atg4B.R.C: 0.898
- RPPA Atg5.R.C: 0.891
- RPPA Atg7.R.V: 0.851
- RPPA Aurora.A.R.C: 1.056
- RPPA Aurora.ABC_pT288_pT232_pT198.R.C: 1.162
- RPPA Axl.R.V: 0.783
- RPPA B7.H4.R.C: 0.993
- RPPA B.Raf.R.C: 0.898
- RPPA B.Raf_pS445.R.V: 0.944
- RPPA BAP1.M.V: 0.990
- RPPA BCL2A1.R.V: 1.335
- RPPA BMK1.Erk5_pT218_Y220.R.V: 0.987
- RPPA BRCA1.M.C: 1.014
- RPPA BRD4.R.V: 1.015
- RPPA Bax.R.V: 0.964
- RPPA Bcl2.R.C: 1.027
- RPPA Bcl.xL.R.V: 1.001
- RPPA BiP.GRP78.M.C: 1.017
- RPPA Bid.R.C: 0.983
- RPPA Bim.R.V: 0.937
- RPPA DNMT1.R.V: 1.022
- RPPA DRP1.R.V: 0.982
- RPPA DUSP4.R.V: 0.898
- RPPA DUSP6.R.C: 0.937
- RPPA Dvl3.R.V: 0.985
- RPPA E.Cadherin.R.V: 1.055
- RPPA EGFR.R.V: 0.930
- RPPA EGFR_pY1068.R.C: 1.016
- RPPA EGFR_pY1173.R.V: 0.991
- RPPA EMA.M.C: 1.130
- RPPA ENY2.M.C: 1.020
- RPPA ER.a.R.V: 0.940
- RPPA ER.a_pS118.R.V: 0.975
- RPPA ERCC5.R.C: 0.879
- RPPA EVI1.R.V: 1.063
- RPPA Elk1_pS383.R.C: 0.992
- RPPA Enolase.1.R.V: 0.999
- RPPA EphA2.R.V: 1.002
- RPPA EphA2_pS897.R.C: 1.008
- RPPA EphA2_pY588.R.C: 0.983
- RPPA Erk5.R.V: 0.909
- RPPA FABP5.R.C: 1.006
- RPPA FAK.R.C: 0.977
- RPPA FAK_pY397.R.V: 1.056
- RPPA FANCD2.R.V: 1.010
- RPPA FASN.R.V: 0.855
- RPPA FGF.basic.R.C: 0.941
- RPPA FN14.R.C: 1.032
- RPPA FOXM1.R.V: 1.022
- RPPA FOXO3.R.V: 1.030
- RPPA FRS2.alpha_pY196.R.V: 1.286
- RPPA FTO.R.V: 1.004
- RPPA Fibronectin.R.V: 0.843
- RPPA FoxO3a_pS318_S321.R.C: 1.028
- RPPA G6PD.R.V: 1.065
- RPPA GATA3.M.V: 1.016
- RPPA GATA6.R.V: 1.046
- RPPA GCLC.R.C: 0.968
- RPPA GCLM.R.V: 1.026
- RPPA GCN5L2.R.V: 0.929
- RPPA GGPS1.M.V: 1.006
- RPPA GRB2.R.V: 0.910
- RPPA GRB7.R.V: 0.970
- RPPA GSK.3B.R.C: 0.917
- RPPA Gab2.R.V: 0.984
- RPPA Gli1.R.C: 1.007
- RPPA Gli3.R.C: 0.971
- RPPA Glucocorticoid.Receptor.R.V: 1.081
- RPPA Glutamate.D1.2.R.V: 1.054
- RPPA Glutaminase.R.C: 0.935
- RPPA Granzyme.B.R.V: 0.974
- RPPA Grp75.R.C: 1.080
- RPPA Gys.R.V: 0.978
- RPPA Gys_pS641.R.V: 1.007
- RPPA H2AX_pS139.R.C: 0.966
- RPPA HER2.M.V: 1.022
- RPPA HER3.R.V: 0.985
- RPPA HER3_pY1289.R.C: 0.975
- RPPA HES1.R.V: 0.990
- RPPA Heregulin.R.V: 0.902
- RPPA X4E.BP1.R.V: 0.842
- RPPA X4E.BP1_pS65.R.V: 1.009
- RPPA X4E.BP1_pT37_T46.R.V: 1.014
- RPPA X14.3.3.zeta.R.V: 1.029
- RPPA X14.3.3εM.C: 1.000
- RPPA X53BP1.R.V: 0.942
- RPPA b.Actin.R.C: 1.019
- RPPA b.Catenin_pT41_S45.R.V: 1.005
- RPPA c.Abl.R.V: 1.077
- RPPA c.Abl_pY412.R.C: 0.962
- RPPA c.IAP2.R.C: 1.022
- RPPA eIF4E.R.V: 0.979
- RPPA eIF4E_pS209.R.V: 1.021
- RPPA eIF4G.R.C: 0.929
- RPPA level HLA.DQA1.R.V: 1.033
- RPPA level HLA.DR.DP.DQ.DX.R.C: 0.982
- RPPA level HMHA1.R.V: 0.975
- RPPA level HSP27.M.C: 1.029
- RPPA level HSP27_pS82.R.V: 0.988
- RPPA level HSP70.R.C: 0.942
- RPPA level Hexokinase.II.R.V: 0.989
- RPPA level Hif.1αR.C: 0.977
- RPPA level Histone.H3.R.V: 0.887
- RPPA level IDO.R.C: 1.004
- RPPA level IGF1R_pY1135_Y1136.R.V: 0.943
- RPPA level IGFBP2.R.V: 0.781
- RPPA level IGFBP3.M.V: 0.976
- RPPA level IGFRb.R.C: 0.929
- RPPA level IL.6.R.C: 0.956
- RPPA level IMP3.R.C: 1.001
- RPPA level IR.b.R.C: 1.049
- RPPA level IRF.1.R.V: 0.861
- RPPA level IRS1.R.V: 0.974
- RPPA level IRS2.R.C: 0.998
- RPPA level JAB1.M.C: 1.013
- RPPA level JNK2.R.V: 1.853
- RPPA level JNK_pT183_Y185.R.C: 0.981
- RPPA level Jagged1.R.V: 0.989
- RPPA level Jak2.R.V: 0.961
- RPPA level KAP1.R.V: 0.913
- RPPA level KEAP1.R.V: 0.975
- RPPA level LC3A.B.R.C: 0.954
- RPPA level LCN2.R.V: 1.252
- RPPA level LDHA.R.C: 1.005
- RPPA level LRP6_pS1490.R.V: 0.929
- RPPA level Lck.R.V: 0.974
- RPPA level MACC1.R.V: 1.049
- RPPA level MAPK_pT202_Y204.R.C: 0.956
- RPPA level MCT4.R.V: 0.820
- RPPA level MDM2_pS166.R.V: 1.004
- RPPA level MEK1.R.V: 1.435
- RPPA level MEK1_pS217_S221.R.V: 0.992
- RPPA level MEK2.R.V: 0.978
- RPPA level MERIT40.R.C: 0.950
- RPPA level MERIT40_pS29.R.V: 1.020
- RPPA level METTL3.R.V: 1.051
- RPPA level MIF.R.C: 1.063
- RPPA level MIG6.R.V: 1.022
- RPPA level MLH1.M.V: 0.972
- RPPA level MLKL.R.V: 0.916
- RPPA level MMP2.R.V: 0.984
- RPPA level MMP14.R.V: 1.009
- RPPA level MRAP.R.C: 1.048
- RPPA level MSH2.R.C: 1.016
- RPPA level MSH6.R.C: 0.997
- RPPA level MSI2.R.C: 0.997

Source: publication PMC9127750, “Structure-based design of CDC42 effector interaction inhibitors for the treatment of cancer” (Cell reports, 2022)
